In ChEMBL document CHEMBL3352252, “Design, synthesis and molecular modeling of biquinoline-pyridine hybrids as a new class of potential EGFR and HER-2 kinase inhibitors” (Bioorg Med Chem Lett, 2014) one finds IC50 data, which are given here for 13 compounds.

Test [1] has as its target Receptor tyrosine-protein kinase erbB-2 (Homo sapiens, UniProt P04626). Kind of test: Inhibition of histidine-tagged recombinant HER2 (unknown origin) expressed in Sf9 cells assessed as reduction in enzyme autophosphorylation by DELFIA/time-resolved fluorometry.
The target of test [2] is Epidermal growth factor receptor (Homo sapiens, UniProt P00533). Kind of test: Inhibition of histidine-tagged recombinant EGFR cytoplasmic domain (amino acids 645-1186) (unknown origin) expressed in Sf9 cells assessed as reduction in enzyme autophosphorylation by DELFIA/time-resolved fluorometry.
The subject of the next test is A549. Briefly: Antiproliferative activity against human A549 cells after 48 hrs by MTT assay. The note with it: A549, 48 h. The class given is functional, cell-based.
Another test deals with HepG2. Briefly: Antiproliferative activity against human HepG2 cells after 48 hrs by MTT assay. As to conditions: HepG2, 48 h. The class given is functional, cell-based.

The structures appear in SMILES notation. pIC50: −log10 of the molar value.

Chain of Receptor tyrosine-protein kinase erbB-2 (P04626 whole entry, the tested form may be a part): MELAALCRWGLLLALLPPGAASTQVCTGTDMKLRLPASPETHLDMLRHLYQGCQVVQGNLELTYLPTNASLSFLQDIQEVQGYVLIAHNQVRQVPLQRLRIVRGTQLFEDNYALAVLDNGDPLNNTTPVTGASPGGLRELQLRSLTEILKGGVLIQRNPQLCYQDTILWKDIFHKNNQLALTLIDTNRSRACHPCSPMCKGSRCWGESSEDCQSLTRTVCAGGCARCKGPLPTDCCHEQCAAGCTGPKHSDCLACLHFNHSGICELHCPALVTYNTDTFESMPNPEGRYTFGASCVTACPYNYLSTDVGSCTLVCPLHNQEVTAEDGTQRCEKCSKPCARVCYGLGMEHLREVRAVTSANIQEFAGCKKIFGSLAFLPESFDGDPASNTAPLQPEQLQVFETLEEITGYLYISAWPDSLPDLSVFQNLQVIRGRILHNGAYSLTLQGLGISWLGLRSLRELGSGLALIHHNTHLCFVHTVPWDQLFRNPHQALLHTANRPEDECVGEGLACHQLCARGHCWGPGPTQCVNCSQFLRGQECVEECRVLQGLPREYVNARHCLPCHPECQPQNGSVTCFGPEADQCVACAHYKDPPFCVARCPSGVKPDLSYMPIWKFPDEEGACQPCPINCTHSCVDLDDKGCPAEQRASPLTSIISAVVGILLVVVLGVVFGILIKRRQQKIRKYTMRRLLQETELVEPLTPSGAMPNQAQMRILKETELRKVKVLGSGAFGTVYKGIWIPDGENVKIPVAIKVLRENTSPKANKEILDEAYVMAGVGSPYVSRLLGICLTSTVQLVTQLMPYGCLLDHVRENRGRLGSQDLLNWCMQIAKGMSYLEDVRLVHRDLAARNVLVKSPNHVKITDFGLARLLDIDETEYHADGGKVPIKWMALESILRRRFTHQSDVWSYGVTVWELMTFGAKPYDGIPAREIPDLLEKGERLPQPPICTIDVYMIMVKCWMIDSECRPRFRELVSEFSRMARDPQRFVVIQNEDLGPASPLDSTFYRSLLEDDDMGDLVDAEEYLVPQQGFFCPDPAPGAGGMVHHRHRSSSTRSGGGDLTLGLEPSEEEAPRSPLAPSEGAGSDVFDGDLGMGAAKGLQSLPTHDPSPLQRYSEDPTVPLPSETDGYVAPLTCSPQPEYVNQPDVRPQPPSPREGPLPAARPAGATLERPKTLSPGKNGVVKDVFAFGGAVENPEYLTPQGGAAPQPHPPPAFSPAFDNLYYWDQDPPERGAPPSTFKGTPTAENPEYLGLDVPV
Chain of Epidermal growth factor receptor (P00533 whole entry, the tested form may be a part): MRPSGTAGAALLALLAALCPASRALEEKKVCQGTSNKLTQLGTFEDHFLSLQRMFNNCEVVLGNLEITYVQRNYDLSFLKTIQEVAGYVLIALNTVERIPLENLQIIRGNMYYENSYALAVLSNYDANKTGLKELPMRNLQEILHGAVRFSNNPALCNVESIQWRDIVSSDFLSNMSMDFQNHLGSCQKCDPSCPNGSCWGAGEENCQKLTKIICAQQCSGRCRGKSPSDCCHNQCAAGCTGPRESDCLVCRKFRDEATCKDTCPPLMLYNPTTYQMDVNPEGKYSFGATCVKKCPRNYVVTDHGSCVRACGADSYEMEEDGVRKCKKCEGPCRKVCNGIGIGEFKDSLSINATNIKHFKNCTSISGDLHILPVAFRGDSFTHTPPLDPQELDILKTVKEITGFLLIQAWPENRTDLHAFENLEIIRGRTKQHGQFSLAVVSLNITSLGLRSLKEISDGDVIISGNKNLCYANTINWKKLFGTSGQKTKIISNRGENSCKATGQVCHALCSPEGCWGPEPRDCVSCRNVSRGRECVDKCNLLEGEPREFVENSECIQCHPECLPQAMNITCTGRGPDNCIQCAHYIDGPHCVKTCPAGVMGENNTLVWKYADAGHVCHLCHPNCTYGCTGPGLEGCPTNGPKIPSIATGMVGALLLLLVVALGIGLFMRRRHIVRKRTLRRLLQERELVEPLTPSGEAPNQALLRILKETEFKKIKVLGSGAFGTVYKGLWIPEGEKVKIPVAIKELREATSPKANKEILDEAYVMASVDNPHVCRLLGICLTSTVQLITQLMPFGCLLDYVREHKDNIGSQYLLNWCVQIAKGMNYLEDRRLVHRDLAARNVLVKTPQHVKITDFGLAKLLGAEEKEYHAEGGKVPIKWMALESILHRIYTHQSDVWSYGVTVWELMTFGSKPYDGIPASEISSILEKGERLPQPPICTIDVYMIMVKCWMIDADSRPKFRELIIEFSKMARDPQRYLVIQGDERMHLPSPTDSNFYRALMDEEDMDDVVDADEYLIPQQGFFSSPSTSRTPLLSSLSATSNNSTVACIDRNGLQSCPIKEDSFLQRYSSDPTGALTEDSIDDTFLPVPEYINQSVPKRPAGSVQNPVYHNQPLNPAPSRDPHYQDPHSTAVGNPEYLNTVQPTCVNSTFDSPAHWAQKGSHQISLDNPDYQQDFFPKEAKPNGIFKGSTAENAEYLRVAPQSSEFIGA

Regarding `Cc1ccc2c(c1)cc(C1C(C#N)=C(N)N(c3cccnc3)C3=C1C(=O)CCC3)c1nnnn12` (stereo not drawn), the pIC50 in test [1] was 4.83; in test [2], 4.98; with A549 it was 4.74; in the test on HepG2, 4.79.
The matching figures for `COc1ccc2c(c1)cc(C1C(C#N)=C(N)N(c3cccnc3)C3=C1C(=O)CCC3)c1nnnn12` (stereo not drawn): 5.05, 5.27, 4.64 and 4.67.
Consider `N#CC1=C(N)N(c2cccnc2)C2=C(C(=O)CCC2)C1c1cc2cc(Cl)ccc2n2nnnc12` (stereo not drawn), for which the negative logarithm of the IC50 (pIC50) with A549 is 5.11; in the test with HepG2, 5.23.
In the case of `COC(=O)C1=C(N)N(c2cccnc2)C2=C(C(=O)CCC2)C1c1cc2ccccc2n2nnnc12` (stereo not drawn), the pIC50 in test [1] is 5.72; in test [2], 5.96; with A549, 5.96; in the test on HepG2, 5.82.
For `COC(=O)C1=C(N)N(c2cccnc2)C2=C(C(=O)CCC2)C1c1cc2cc(C)ccc2n2nnnc12` (stereo not drawn), the pIC50 in test [1] is 5.28; in test [2] it was 5.37; with A549 it was 5.27; in the test with HepG2 it was 5.72.
The matching figures for `COC(=O)C1=C(N)N(c2cccnc2)C2=C(C(=O)CCC2)C1c1cc2cc(OC)ccc2n2nnnc12` (stereo not drawn): 5.68, 5.89, 5.19 and 5.22.
The matching figures for `COC(=O)C1=C(N)N(c2cccnc2)C2=C(C(=O)CCC2)C1c1cc2cc(Cl)ccc2n2nnnc12` (stereo not drawn): 5.05, 5.09, 7.00 and 5.89.
In the same order, the values of `CCOC(=O)C1=C(N)N(c2cccnc2)C2=C(C(=O)CCC2)C1c1cc2ccccc2n2nnnc12` (stereo not drawn) are 6.70, 7.05, 6.40 and 7.00.
Regarding `CCOC(=O)C1=C(N)N(c2cccnc2)C2=C(C(=O)CCC2)C1c1cc2cc(C)ccc2n2nnnc12` (stereo not drawn), the pIC50 in test [1] was 5.39; in test [2], 5.15; in the test on A549, 5.07; with HepG2, 5.15.
On to `CCOC(=O)C1=C(N)N(c2cccnc2)C2=C(C(=O)CCC2)C1c1cc2cc(OC)ccc2n2nnnc12` (stereo not drawn), for which the pIC50 was 6.10 in test [1], 6.70 in test [2], 4.81 in the test on A549 and 4.74 in the test with HepG2.
On to `CCOC(=O)C1=C(N)N(c2cccnc2)C2=C(C(=O)CCC2)C1c1cc2cc(Cl)ccc2n2nnnc12` (stereo not drawn), for which the pIC50 in test [1] is 4.64; in test [2], 4.78; in the test on A549 it was 5.89; with HepG2, 5.26.
Turning to `N#CC1=C(N)N(c2cccnc2)C2=C(C(=O)CCC2)C1c1cc2ccccc2n2nnnc12` (stereo not drawn), the negative-log IC50 (pIC50) in test [1] was 5.28; in test [2], 5.32; in the test with A549, 4.89; in the test on HepG2, 4.96.
Regarding `C#Cc1cccc(Nc2ncnc3cc(OCCOC)c(OCCOC)cc23)c1` [ERLOTINIB], the negative-log IC50 (pIC50) in the test on A549 and with HepG2 was 7.00 each time.
